From ChEMBL document CHEMBL1201862, “PubChem BioAssay data set” (2004)
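1) Cells in 96-well plates. 2) Compound, 48 h, 5 concentrations. 3) Linear interpolation between surrounding doses. 4) Unreached endpoint = highest concentration. GI50 = concentration required for 50% inhibition of growth.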 The source made the active and inactive calls. Cut-off read from the data, not from the text of the source: active = GI50 up to about 1.1 µM and inactive = higher.

Key:
Test in all cases: NCI-60 cell line screen, 48 h
NCI-H460 = system: NCI-H460
SK-MEL-5 = system: SK-MEL-5
IGROV-1 = system: IGROV-1
OVCAR-4 = system: OVCAR-4
SNB-75 = system: SNB-75
UACC-62 = system: UACC-62
HOP-62 = system: HOP-62
RPMI-8226 = system: RPMI-8226
TK-10 = system: TK-10
HCT-116 = system: HCT-116
HCT-15 = system: HCT-15
ACHN = system: ACHN
SN12C = system: SN12C
Malme-3M = system: Malme-3M
EKVX = system: EKVX
HT-29 = system: HT-29
NCI-H226 = system: NCI-H226
SF-268 = system: SF-268

SMILES | GI50 (NCI-H460) | GI50 (SK-MEL-5) | GI50 (IGROV-1) | GI50 (OVCAR-4) | GI50 (SNB-75) | GI50 (UACC-62) | GI50 (HOP-62) | GI50 (RPMI-8226) | GI50 (TK-10) | GI50 (HCT-116) | GI50 (HCT-15) | GI50 (ACHN) | GI50 (SN12C) | GI50 (Malme-3M) | GI50 (EKVX) | GI50 (HT-29) | GI50 (NCI-H226) | GI50 (SF-268)
CC(C)(C)c1cc(C2c3cc4c(cc3OC(O)(CO)C2C(=O)O)OCO4)cc(C(C)(C)C)c1O.CC(C)(C)c1cc(C2c3cc4c(cc3OC3(O)COC(=O)C23)OCO4)cc(C(C)(C)C)c1O (stereo not drawn) | 14.7 µM (inactive) | 9.48 µM (inactive) | 16.4 µM (inactive) | 11.7 µM (inactive) | 10.1 µM (inactive) | 5 µM (inactive) | 32.2 µM (inactive) | 4.37 µM (inactive) | 22.7 µM (inactive) | 8.47 µM (inactive) | 8.2 µM | 14.8 µM (inactive) | 9.04 µM (inactive) | 16.6 µM (inactive) | 22.5 µM (inactive) | 13.5 µM (inactive) | – | –
O=C1C(=O)N(C(=O)c2ccc(Cl)c(Cl)c2)c2ccc(Cl)cc21 | 89.7 µM (inactive) | > 100 µM (inactive) | > 100 µM (inactive) | 64.6 µM (inactive) | 31.8 µM (inactive) | > 100 µM (inactive) | – | 35.6 µM (inactive) | > 100 µM (inactive) | – | – | > 100 µM (inactive) | – | – | 74 µM (inactive) | > 100 µM (inactive) | > 100 µM (inactive) | > 100 µM (inactive)
O=[PH](O)c1cc2ccccc2c2ccccc12 | > 100 µM (inactive) | > 100 µM (inactive) | > 100 µM (inactive) | > 100 µM (inactive) | > 100 µM (inactive) | > 100 µM (inactive) | > 100 µM (inactive) | > 100 µM (inactive) | > 100 µM (inactive) | > 100 µM (inactive) | – | – | > 100 µM (inactive) | – | > 100 µM (inactive) | > 100 µM (inactive) | > 100 µM (inactive) | > 100 µM (inactive)
CC1(CO)C(O)CCC2(C)C1C(O)CC1CC3CC12CCC3(O)CO (stereo not drawn) | 77.1 µM (inactive) | > 225 µM (inactive) | > 225 µM (inactive) | > 225 µM (inactive) | > 189 µM (inactive) | > 225 µM (inactive) | > 225 µM (inactive) | > 158 µM (inactive) | – | > 217 µM (inactive) | > 225 µM | – | > 225 µM (inactive) | > 225 µM (inactive) | > 205 µM (inactive) | > 225 µM (inactive) | 116 µM (inactive) | > 191 µM (inactive)
C=C1CCCC2[C@](C)(CC3=C(O)C(=O)C=C(OC)C3=O)[C@@H](C)CC[C@]12C (stereo partly drawn) | 2.8 µM (inactive) | 2.42 µM (inactive) | 3.22 µM (inactive) | 5.65 µM (inactive) | 3.94 µM (inactive) | 2.22 µM (inactive) | – | 2.74 µM (inactive) | 7.16 µM (inactive) | 3.71 µM (inactive) | 2.71 µM | 4.06 µM (inactive) | 10.5 µM (inactive) | 2.9 µM (inactive) | 6.28 µM (inactive) | 10.9 µM (inactive) | – | 4.31 µM (inactive)
COC(=O)c1c(C)cc2c(c1O)C1(O)C(=O)c3cc4c(c(O)c3C(=O)C1(OC)C(O)C2)C(=O)C=C(NC1OC(C)C(OC)C(O)C1OC)C4=O (stereo not drawn) | 0.0986 µM (active) | – | 0.0134 µM (active) | 0.0687 µM (active) | 0.141 µM (active) | 0.0139 µM (active) | 0.277 µM (active) | 0.0157 µM (active) | 0.114 µM (active) | 0.0378 µM (active) | 0.106 µM | 0.0681 µM (active) | 0.139 µM (active) | 0.0538 µM (active) | 0.241 µM (active) | 0.0493 µM (active) | 0.189 µM (active) | 0.142 µM (active)
[N-]=[N+]=NC1(Cc2ccccc2)C(=O)Nc2ccccc2C1=O (stereo not drawn) | > 100 µM (inactive) | > 100 µM (inactive) | 88.7 µM (inactive) | > 100 µM (inactive) | > 100 µM (inactive) | > 100 µM (inactive) | > 100 µM (inactive) | – | > 100 µM (inactive) | > 100 µM (inactive) | > 100 µM | > 100 µM (inactive) | > 100 µM (inactive) | > 100 µM (inactive) | > 100 µM (inactive) | > 100 µM (inactive) | – | > 100 µM (inactive)
C=C1C2CC(OC(C)=O)C3(C)C(c4ccoc4)OC(=O)[C@@H](O)[C@]13OC1C[C@H](OC(C)=O)C(C)(C)[C@H](CC(=O)OC)[C@]12C (stereo partly drawn) | > 100 µM (inactive) | > 100 µM (inactive) | > 100 µM (inactive) | 93.5 µM (inactive) | 33.6 µM (inactive) | > 100 µM (inactive) | – | > 100 µM (inactive) | > 100 µM (inactive) | > 100 µM (inactive) | > 100 µM | > 100 µM (inactive) | > 100 µM (inactive) | – | > 100 µM (inactive) | > 100 µM (inactive) | > 100 µM (inactive) | –
COc1cc(Nc2nc3cc(C(F)(F)F)ccc3nc2C)cc(OC)c1OC | 4.11 µM (inactive) | 9.79 µM (inactive) | 13.6 µM (inactive) | 16.3 µM (inactive) | 15.5 µM (inactive) | 3.94 µM (inactive) | 16.7 µM (inactive) | – | 10.7 µM (inactive) | 8.81 µM (inactive) | 3.32 µM | 8.11 µM (inactive) | 10.4 µM (inactive) | 13.6 µM (inactive) | 16.6 µM (inactive) | 3 µM (inactive) | 5.14 µM (inactive) | 16 µM (inactive)
COc1ccc(/C=C/C(=O)c2cc(C(=O)O)c(OC)cc2OC)cc1OC | > 100 µM (inactive) | > 100 µM (inactive) | > 100 µM (inactive) | > 100 µM (inactive) | > 100 µM (inactive) | > 100 µM (inactive) | > 100 µM (inactive) | > 100 µM (inactive) | – | > 100 µM (inactive) | > 100 µM | > 100 µM (inactive) | > 100 µM (inactive) | – | > 100 µM (inactive) | > 100 µM (inactive) | > 100 µM (inactive) | > 100 µM (inactive)
O=C(O)Cc1ccccc1CCc1ccccc1Cl | > 100 µM (inactive) | > 100 µM (inactive) | > 100 µM (inactive) | > 100 µM (inactive) | 93.8 µM (inactive) | – | – | > 100 µM (inactive) | > 100 µM (inactive) | > 100 µM (inactive) | > 100 µM | – | > 100 µM (inactive) | > 100 µM (inactive) | 96.4 µM (inactive) | > 100 µM (inactive) | 68.1 µM (inactive) | > 100 µM (inactive)
Cn1c2c(c3ccccc31)CCN(CCCN1CCN(c3ccccc3)CC1)C2=O | – | 18.9 µM (inactive) | 20.8 µM (inactive) | – | – | 19.3 µM (inactive) | – | 16 µM (inactive) | 16.9 µM (inactive) | 16.1 µM (inactive) | 19.1 µM | 21.6 µM (inactive) | 20.6 µM (inactive) | – | 26.7 µM (inactive) | 13.8 µM (inactive) | – | 25.7 µM (inactive)
O=C(c1ccco1)N(C(=S)N1CCN(c2ccccc2)CC1)C1CCCCC1 | 76 µM (inactive) | 56.4 µM (inactive) | > 100 µM (inactive) | > 100 µM (inactive) | 50.5 µM (inactive) | > 100 µM (inactive) | > 100 µM (inactive) | > 100 µM (inactive) | > 100 µM (inactive) | 62.8 µM (inactive) | 94.6 µM | > 100 µM (inactive) | > 100 µM (inactive) | > 100 µM (inactive) | – | 63.5 µM (inactive) | – | > 100 µM (inactive)
CC(=O)OC(CC1(C)C(C)CCC23COC(=O)C2=CCCC31)c1ccoc1 (stereo not drawn) | 40.4 µM (inactive) | 19.5 µM (inactive) | – | 28.1 µM (inactive) | 23.3 µM (inactive) | 23.1 µM (inactive) | 27.5 µM (inactive) | – | – | 20.5 µM (inactive) | 20.4 µM | 28.8 µM (inactive) | 19.9 µM (inactive) | 21.8 µM (inactive) | 30.5 µM (inactive) | 29.6 µM (inactive) | 16.7 µM (inactive) | 15.9 µM (inactive)
N#C/C(=C\c1ccc(O)c(O)c1)C(N)=O | 38 µM (inactive) | – | 76.4 µM (inactive) | 67.1 µM (inactive) | 17.7 µM (inactive) | 52.7 µM (inactive) | 51.2 µM (inactive) | 15.5 µM (inactive) | 77.6 µM (inactive) | 23 µM (inactive) | 50.6 µM | 41.6 µM (inactive) | 39.2 µM (inactive) | 50.6 µM (inactive) | 53 µM (inactive) | 69.8 µM (inactive) | 37 µM (inactive) | 35 µM (inactive)
O=[N+]([O-])c1ccc(CNC2=NNS(=O)(=O)c3ccccc32)cc1 | > 100 µM (inactive) | > 100 µM (inactive) | > 100 µM (inactive) | > 100 µM (inactive) | – | 34.6 µM (inactive) | – | 34.5 µM (inactive) | – | > 100 µM (inactive) | 75.5 µM | > 100 µM (inactive) | > 100 µM (inactive) | > 100 µM (inactive) | > 100 µM (inactive) | > 100 µM (inactive) | > 100 µM (inactive) | > 100 µM (inactive)
CCN(CC)CC1CCCCN1CC(=O)N1CC(C)C(=O)Nc2ccccc21 (stereo not drawn) | > 100 µM (inactive) | > 100 µM (inactive) | > 100 µM (inactive) | > 100 µM (inactive) | – | > 100 µM (inactive) | > 100 µM (inactive) | > 100 µM (inactive) | – | > 100 µM (inactive) | > 100 µM | > 100 µM (inactive) | > 100 µM (inactive) | > 100 µM (inactive) | – | > 100 µM (inactive) | > 100 µM (inactive) | > 100 µM (inactive)
Cc1oc2c(C)c3oc(=O)cc(C)c3cc2c1CN | 27.9 µM (inactive) | – | – | 40.6 µM (inactive) | 33.9 µM (inactive) | 92.3 µM (inactive) | 38.8 µM (inactive) | 39.4 µM (inactive) | 27.8 µM (inactive) | 22.8 µM (inactive) | 36.9 µM | 27.7 µM (inactive) | 42.5 µM (inactive) | 25.2 µM (inactive) | 42.6 µM (inactive) | 31.9 µM (inactive) | 34.4 µM (inactive) | 31 µM (inactive)
